Test [1] concerns the target T1, human CH24H (Homo sapiens, UniProt Q9Y6A2).
T1 construct: Using Full-Length Mammalian Gene Collection No. 4819975 (Invitrogen) as a template; made in house; host or cells: FreeStyle 293-F cells (transient transfection); cell lysate supernatant, not purified
In words: Measurement of CH24H inhibitory activity (24-HC produced from [14C] cholesterol by human CH24H lysate). The note with it: test compound 1 μM, [14C] cholesterol 15 μM, 37° C., 5 hr, read-out: Inhibitory Rate (%) in 1 μM. It is filed as biochemical. Here is the method:
The expression of human CH24H was performed using FreeStyle 293 Expression System (Invitrogen). According to the manual attached to FreeStyle 293 Expression System and using the plasmid DNA for human CH24H expression (pcDNA3.1(+)/hCH24H) constructed in Experimental Example 1, a transient expression using FreeStyle 293-F cell was performed. After transfection, the cells were cultured at 37° C., 8% CO2 with shaking at 125 rpm for 2 days. The cells were collected by centrifugation, and suspended in a suspension buffer (100 mM potassium phosphate (pH 7.4), 0.1 mM EDTA, 1 mM DTT, 20% Glycerol). The suspended product was disrupted by a polytron homogenizer (manufactured by Kinematica), and centrifuged at 9000×g for 10 min, and the supernatant was collected. The collected supernatant was cryopreserved (−80° C.) as a human CH24H lysate standard product.
For the measurement of CH24H inhibitory activity, using the human CH24H lysate prepared in Experimental Example 2, the amount of 24-HC produced from cholesterol by catalytic activity of CH24H was measured in the presence of a test compound, and compared with that measured in the absence of the test compound. That is, a test compound solution at various concentrations was mixed with a reaction buffer (50 mM potassium phosphate containing 0.1% BSA and Complete, EDTA-free, pH 7.4) and human CH24H lysate. Then, [^14C] cholesterol (53 mCi/mmol specific activity, 15 μM) was added, and CH24H reaction was performed at 37° C. for 5 hr. After completion of the reaction, a quenching solution consisting of chloroform/methanol/distilled water (2:2:1 v/v) was added, and the resulting 24-HC was extracted by shaking. The extract was applied to silica gel thin layer chromatography (ethyl acetate:toluene=4:6), and the obtained ^14C-24HC fraction was measured with BAS2500 (Fujifilm Corporation).
The inhibitory rate (%) was calculated from the ratio of radioactivity in the presence of a test compound relative to the radioactivity in the absence of the test compound.

The subject of test [2] is APP transgenic mouse (Tg2576). In words: Novel object recognition test using an APP transgenic mouse (Tg2576). The settings on record: 3 mg/mL suspension at 10 mL/kg orally once a day for 6 weeks. It is filed as in vivo, Tg2576 mice. On the procedure: Animals used were 6-week-old Tg2576 mice and their wild-type mice (10 mice/group). A test compound was suspended in a 0.5% aqueous methyl cellulose [133-14255 WAKO] solution (3 mg/mL). The body weight of the mice was measured, and the solution was forcibly administered orally and repeatedly at 10 mL/kg once a day for 6 weeks. Then, a novel object recognition test was performed as follows. On the day before acquisition trial, the mice kept in the same cage were put in an observation box in which the illuminance was set to 300 lx, and habituated for 30 min. After the habituation, a compound was orally administered. On the next day, the mice were put, as an acquisition trial, in an observation box in which two same objects were placed, and the number and duration of contacts to the objects were measured for 5 min under 300 lx. A compound was orally administered after the measurement. The day after the acquisition trial, the one object was replaced with a novel object, and the number and duration of contacts to each of the object were measured for 5 min. A metal cylinder and ceramic triangular pyramid were used in this test. A control group (test compound-untreated group) and a control group in wild-type mice were used for comparison. […]

T1 sequence (Q9Y6A2 whole entry): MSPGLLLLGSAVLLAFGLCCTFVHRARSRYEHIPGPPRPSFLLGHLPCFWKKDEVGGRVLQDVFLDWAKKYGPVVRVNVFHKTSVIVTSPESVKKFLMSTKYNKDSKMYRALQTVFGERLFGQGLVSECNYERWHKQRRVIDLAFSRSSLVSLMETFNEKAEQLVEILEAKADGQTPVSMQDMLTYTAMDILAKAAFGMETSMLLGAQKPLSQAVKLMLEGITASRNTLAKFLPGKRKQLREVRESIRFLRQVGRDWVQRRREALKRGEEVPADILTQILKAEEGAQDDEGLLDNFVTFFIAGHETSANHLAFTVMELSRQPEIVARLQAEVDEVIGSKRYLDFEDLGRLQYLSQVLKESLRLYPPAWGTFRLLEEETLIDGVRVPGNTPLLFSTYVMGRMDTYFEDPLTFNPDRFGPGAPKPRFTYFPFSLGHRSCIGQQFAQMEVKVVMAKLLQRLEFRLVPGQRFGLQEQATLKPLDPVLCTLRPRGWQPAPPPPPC

Take `O=C(c1cnc2c(-c3cnco3)cc(C(F)(F)F)cn12)N1C2CCC1COC2` [Example 85, 3-oxa-8-azabicyclo[3.2.1]oct-8-yl(8-(1,3-oxazol-5-yl)-6-(trifluoromethyl)imidazo[1,2-a]pyridin-3-yl)methanone]: the inhibition at 1 µM in test [1] was 88%. Also, in test [2], the “exploration Rate (%) of Novel Object, duration of contacts” value stood at 61.8% and the “exploration Rate (%) of Novel Object, number of contacts” value is given as 54.4%.
As for `N#C[C@H]1CCCN1C(=O)c1cnc2c(-c3cnco3)cc(C(F)(F)F)cn12` [Example 175, (2R)-1-((8-(1,3-oxazol-5-yl)-6-(trifluoromethyl)imidazo[1,2-a]pyridin-3-yl)carbonyl)pyrrolidine-2-carbonitrile], the inhibition at 1 µM in test [1] came to 80%.
With `O=C(c1cnc2c(-c3cnco3)cc(C(F)(F)F)cn12)N1C2COCC1COC2` [Example 176, 3,7-dioxa-9-azabicyclo[3.3.1]non-9-yl(8-(1,3-oxazol-5-yl)-6-(trifluoromethyl)imidazo[1,2-a]pyridin-3-yl)methanone], the inhibition at 1 µM in test [1] was 94%.
Consider `O=C(c1cnc2c(-c3cnco3)cc(C(F)(F)F)cn12)N1CC(F)C1` [Example 177, (3-fluoroazetidin-1-yl)(8-(1,3-oxazol-5-yl)-6-(trifluoromethyl)imidazo[1,2-a]pyridin-3-yl)methanone], for which the inhibition at 1 µM in test [1] turned out to be 86%.

(Values after US9296746B2, “Heterocyclic compound” (TAKEDA PHARMACEUTICAL COMPANY LIMITED, priority 2012, dated 2016).)
